This is an account of results in patent publication US20240335364A1, “COMPOSITIONS OF DICAFFEOYLQUINIC ACIDS WITH TOCOPHEROL” (SYMRISE AG, priority 2021, published 2024).

One assay relates to HSPB2. Put plainly: Modulation of HSPB2 gene expression of keratinocytes (real-time qPCR, RQ). The arrangement: key: relative quantity vs DMSO vehicle control (qPCR). It counts as cell-based, human. The note with it: nHEK, 24 h, 0.005% alone; Example 4. Here is the method:
(§1) Neonatal human epidermal keratinocytes (nHEK) were cultivated in an EpiLife® medium (Gibco) including an HKGS kit (Gibco) with 5% CO2 at 37° C. in accordance with the supplier's instructions. The cells were treated for 24 hours, with 0.0005% of the different dicaffeoylquinic acids from above dissolved in DMSO and DMSO alone as the vehicle control. Genomic target expression levels in treated cells were measured using a quantitative Real-Time PCR comparison to vehicle control treatment.
(§2) RNA was isolated using Qiagen's RNeasy® Mini Kit. The total RNA concentrations were measured using Eppendorf's μCuvetteG 1.0 and BioPhotometer, by measuring the absorption at 260 nm. Purity control values such as E260/280 and E260/230 were calculated simultaneously. Reverse transcription was performed using the high-capacity RNA-to-cDNA kit of Applied Biosystems, in accordance with the supplier's instructions. Samples were treated in Biometra's PCR Thermocycler. For fast real-time qPCR, the cDNA was diluted with RNase-free water, and the TaqMan™ Fast Universal PCR Master Mix of Applied Biosystems was used. Quantitative real time PCR was performed using the StepOnePlus fast real-time PCR instrument by Applied Biosystems. Analysis was conducted using the StepOne software and […] (normalised to endogenous control […] expression). For upregulations, RQ values ≥2.5 are considered to be relevant.
(§3) Neonatal human epidermal keratinocytes (nHEK) were cultivated as described in Example 1 and treated for 24 hours with 0.0007% of the different monocaffeoylquinic acids. Afterwards fast real-time qPCR was performed as described in above using a customised gene array.
(§4) Neonatal human epidermal keratinocytes (nHEK) were cultivated as described in Example 1 and treated for 24 hours with 4,5-dicaffeoylquinic acid (CAS number 14534-61-3, Phytolab GmbH & Co. KG) and (±)-α-tocopherol (CAS number 10191-41-0, synonym: Synonym: DL-α-Tocopherol, Vitamin E, Sigma-Aldrich, synthetic) alone and in combination. Afterwards fast real-time qPCR was performed as described in above using a customised gene array.
(§5) [formula] • With • A=RQ value by 4,5-dicaffeoylquinic acid at concentration x • B=RQ value by tocopherol at concentration y • C=RQ value by the combination of 4,5-dicaffeoylquinic acid at concentration x/2 and tocopherol at concentration y/2 • D=Factor for 4,5-dicaffeoylquinic acid=>0.5 (due to half concentration tested in the combination) • E=Factor for tocopherol=>0.5 (due to half concentration tested in the combination) • A SI=1 is obtained for additive activity of the two combined components, whereas a SI <1 proves antagonistic activity (observed efficacy is lower than additive) and SI >1 proves synergistic activity (observed efficacy is higher than additive).
(§6) Neonatal human epidermal keratinocytes (nHEK) were cultivated as described above and treated for 24 hours with yarrow extract of example 3 (Achillea millefolium, freeze-dried fresh press juice of flowering aerials, cultivated in Germany) and (±)-α-tocopherol (CAS number 10191-41-0, synonym: Synonym: DL-α-Tocopherol, Vitamin E, Sigma-Aldrich, synthetic) alone and in two combinations. Afterwards fast real-time qPCR was performed as described in above using a customised gene array.
In general terms: Real-time PCR tracks product formation cycle by cycle.

Another assay concerns HSPB8. Put plainly: Modulation of HSPB8 gene expression of keratinocytes (real-time qPCR, RQ). The arrangement: key: RQ: expression relative to DMSO vehicle control (qPCR). The note with it: nHEK, 24 h. It counts as cell-based, human. Here is the method: as §1, §2, §3
(§7) Neonatal human epidermal keratinocytes (nHEK) were cultivated as described in Example 1 and treated for 24 hours with 0.005% of the extract samples. Afterwards fast real-time qPCR was performed as described in above using a customized gene array.
as §4, §5, §6

The next assay relates to CRYAB. Description: Modulation of CRYAB gene expression of keratinocytes (real-time qPCR, RQ). It counts as cell-based, human. Details: key: relative quantity (RQ) vs DMSO vehicle-treated control. The note with it: nHEK, 24 h. Here is the method: as §1, §2, §3, §7, §4, §5
Neonatal human epidermal keratinocytes (nHEK) were cultivated as described above and treated for 24 hours with 3,5-dicaffeoylquinic acid (CAS number 2450-53-5, Phytolab GmbH & Co. KG) and D-α-tocopherol (CAS number 59-02-9, synonym: (+)-α-tocopherol, Vitamin E, trade name: Copherol® F 1300 C, BTC Europe GmbH) alone and in combination. Afterwards fast real-time qPCR was performed as described in above using a customised gene array.
(§8) Neonatal human epidermal keratinocytes (nHEK) were cultivated as described above and treated for 24 hours with yarrow extract of example 3 (Achillea millefolium, freeze-dried fresh press juice of flowering aerials, cultivated in Germany) and (±)-α-tocopherol (CAS number 10191-41-0, synonym: Synonym: DL-α-Tocopherol, Vitamin E, Sigma-Aldrich, synthetic) alone and in two combinations. Afterwards fast real-time qPCR was performed as described in above using a customised gene array. […]

The test system of a further assay is CLDN1. Put plainly: Modulation of CLDN1 gene expression of keratinocytes (real-time qPCR, RQ). It counts as cell-based, human. The note with it: nHEK, 24 h. Here is the method:
as §1, §2, §3, §7, §4, §5
(§9) Neonatal human epidermal keratinocytes (nHEK) were cultivated as described in Example 1 and treated for 24 hours with 3,4-dicaffeoylquinic acid (CAS number 57378-72-0, Phytolab GmbH & Co. KG) and (+)-α-tocopherol (CAS number 59-02-9, synonym: Synonym: D-α-tocopherol, Vitamin E, Sigma-Aldrich) alone and in combination. Afterwards fast real-time qPCR was performed as described in above using a customised gene array. For upregulations, RQ values ≥2.5 are considered to be relevant.
as §6

A further assay concerns OCLN. Description: Modulation of OCLN gene expression of keratinocytes (real-time qPCR, RQ). It counts as cell-based, human. The arrangement: key: RQ: expression relative to DMSO vehicle control (qPCR). The note with it: nHEK, 24 h. Here is the method:
as §1, §2, §3, §7, §4, §5, §6

The subject of a further assay is DEFB1. Description: Modulation of DEFB1 gene expression of keratinocytes (real-time qPCR, RQ). The class given is cell-based, human. Details: key: RQ = expression relative to DMSO vehicle control (qPCR). The note with it: nHEK, 24 h. Here is the method: as §1, §2, §3, §4, §5, §6
Neonatal human epidermal keratinocytes (nHEK) were cultivated as described above and treated for 24 hours with yarrow extract of example 3 (Achillea millefolium, freeze-dried fresh press juice of flowering aerials, cultivated in Germany) and (+)-α-tocopherol (CAS number 59-02-9, synonym: Synonym: D-α-tocopherol, Vitamin E, Sigma-Aldrich) alone and in combination. Afterwards fast real-time qPCR was performed as described in above using a customised gene array.

For the next assay, the system named is DSC1. Put plainly: Modulation of DSC1 gene expression of keratinocytes (real-time qPCR, RQ). It counts as cell-based, human. Details: key: RQ: expression relative to DMSO vehicle control. The note with it: nHEK, 24 h. Here is the method:
as §1, §2, §3, §7, §4, §5, §9, §8

The next assay relates to DSG1. Put plainly: Modulation of DSG1 gene expression of keratinocytes (real-time qPCR, RQ). It counts as cell-based, human. The note with it: nHEK, 24 h. Details: key: relative quantity vs DMSO vehicle control (qPCR). Here is the method:
as §1, §2, §3, §7, §4, §5, §9
Neonatal human epidermal keratinocytes (nHEK) were cultivated as described above and treated for 24 hours with 3,5-dicaffeoylquinic acid (CAS number 2450-53-5, Phytolab GmbH & Co. KG) and D-α-tocopherol (CAS number 59-02-9, synonym: (+)-α-tocopherol, Vitamin E, trade name: Copherol® F 1300 C, BTC Europe GmbH) alone and in combination. Afterwards fast real-time qPCR was performed as described in above using a customised gene array. […]

Assay [1] concerns Neonatal human epidermal keratinocytes (nHEK). Put plainly: Modulation of gene expression of keratinocytes, whole gene array (statements in words). The class given is cell-based. The note with it: 24 h, tocopherol alone at 0.005%. Here is the method:
as §1, §2, §3, §7

[2] abbreviates: 0.005% tocopherol alone, Example 7, Table 9.
Setting [3] is: 0.005% tocopherol alone, Example 7, Table 10.

For (±)-α-tocopherol [(±)-alpha-tocopherol], the “RQ value HSPB2” value with HSPB2 came out at 1.4. For the same substance, the “RQ value HSPB8” value in the assay on HSPB8 (0.005% alone, Example 4) was 1.0; in the assay with HSPB8 (setting [2]), 1.2; in the assay with HSPB8 (setting [3]) it was 2.3. The “RQ value CRYAB” value with CRYAB (0.005% alone, Example 4) was found to be 1.4; with CRYAB (setting [2]), 1.3. For the same substance, the “RQ value CLDN1” value with CLDN1 (0.005% alone, Example 4) turned out to be 1.2; in the assay on CLDN1 (setting [2]), 1.3; in the assay on CLDN1 (setting [3]) it was 1.8. For the same substance, the “RQ value OCLN” value with OCLN (0.005% alone, Example 4) is recorded as 1.7; with OCLN (setting [2]), 2.4. Further, the “RQ value DEFB1” value in the assay with DEFB1 (0.005% alone, Example 4) came out at 1.3; in the assay on DEFB1 (setting [2]), 1.7. The “RQ value DSC1” value in the assay on DSC1 (0.005% alone, Example 4) amounted to 1.1; with DSC1 (setting [2]), 1.3; in the assay on DSC1 (setting [3]), 1.9. In addition, the “RQ value DSG1” value in the assay with DSG1 (0.005% alone, Example 4) is 1.3; in the assay on DSG1 (setting [2]), 1.4; in the assay on DSG1 (setting [3]), 2.0. The “relevant modulation of the selected genes (RQ ≥2.5)” value in assay [1] is “does not relevantly modulate any of the selected genes”.
